Like-named read-outs stand apart in the source and are kept apart here.
Columns and labels:
rats = assay: Vogel test; format: in vivo; conditions: i.c.v.
From the text: The Vogel test is based on the development of a conflict between a highly motivated behavior and an aversion. For this test, the strong motivation is thirst. The animal is water deprived for 12-16 hrs to produce the motivation to drink. During the training period the animals are exposed to the testing environment so they become accustomed to the drinking spout and minimize the fear of a novel environment. Following training, the animals are allowed access to water for 2 hrs. During this time, the animals will drink and eat their normal amount of water and food, compensating for the deprivation time. However, this schedule still produces a strong motivation to drink during the testing period.
Having been deprived of water for twelve to sixteen hours, an animal is placed in a test cage where it is allowed to drink freely for five minutes. This period is used to habituate the animal to the environment and the drinking spout Following the training period, animals have access to water and food in their home cage for 2 hrs. Food is available at all times. Twenty-four hours later, drug is administered to the animal intracerebroventricularly.
After an indicated delay started from the time of injection the animal is again placed in the test cage for ten minutes. A computer counts each time the animal licks, and after every twentieth lick administers a mild electric stimulus across the tongue and/or feet. The electrical stimulus consists of a 0.6 mA current with a duration of 100 msec. This procedure produces a state of conflict for the animal that is reduced by the administration of clinically used anxiolytic agents (i.e., Valium). For dose-response curves, separate groups of animals are injected with increasing doses of test drug and are tested at a predetermined time.

GR complex = assay: modulation of [35S]TBPS binding in rat cerebral cortex P2 homogenate; design: species or system Sprague-Dawley rats; IMAX: unit not given here; conditions: for IC50: concentration of compounds to inhibit 50% of control [35S]TBPS binding, 2 nM [35S]TBPS, 25°C, 90 minutes, no unit printed; for IMAX: maximum inhibition of [35S]TBPS binding, I* = Inactive
Outline: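 Rat (male Sprague-Dawley) cortical P2 homogenate, 0.5 mg protein, in 50 mM Na/K phosphate pH 7.4, 200 mM NaCl, incubated 90 min at 25° C with 2 nM [35S]TBPS plus GABA and (+)bicuculline, compounds added in DMSO. Filter-bound radioactivity counted; nonspecific binding defined with […].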

[1] = system: metrazol induced convulsions; assay: animal or person; format: in vivo, mice; conditions: for % Protected: 10 mg/kg
maximal electroshock [2] = assay: maximal electroshock test; format: in vivo, mice; conditions: Mus musculus, ip, 20% hydroxypropyl-β-cyclodextrin in water
From the text: The anticonvulsant tests are similar to that described above. […]

mice [3] = assay: elevated plus-maze; format: in vivo, N.I.H. Swiss-Webster mice
Outline: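 Male Swiss-Webster mice (15-20 g), dosed once with drug or vehicle, were placed on an elevated plus-maze 10 min post-injection for 5 min. Open-arm entries and open-arm time recorded, each as a percentage of total arm entries or time; center time excluded.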

mice [4] = assay: light/dark transition test; format: in vivo, N.I.H. Swiss-Webster mice; conditions: IP
From the text: The light/dark transition test (Crawley and Goodwin, Pharmacol. Biochem. Behav. 13:67-70 1980) is based on the observation that rodents naturally tend to explore novel environments, but open, brightly lit arenas are aversive to the rodents and inhibit exploratory behavior (Christmas and Maxwell, Neuropharmacol. 9:17-29 1970; File, J. Neurosci. Meth. 2:219-238 1980).
Male N.I.H. Swiss-Webster mice (Harlan, Harlan, Indianapolis, IN) weighing 15-20 g were housed four per cage in polyethylene cages with sawdust bedding. The colony room was environmentally controlled (22°C) with a 12 hr light/dark cycle (0600-1800 hr). Food and water were available ad libitum, except during testing. The experiments were run from 0700-1500 hr and groups were counterbalanced for time of day effects. Mice were only administered drug or vehicle once.
The method used was a modification of methods previously described (Wieland et al., Br. Res. 565:263-268 (1991)). The apparatus included two 2-compartment automated test chambers (Model RXYZCM16, Omnitech Electronics, Columbus, OH). The open compartment was connected to the enclosed compartment via a 7.5 x 7.5 cm passageway. The open compartment was brightly lit using a 200 W incandescent light bulb. The experimental room was kept dark. Interruptions of the infrared beams in either chamber were automatically recorded by being linked to a computer through a Digiscan Analyzer (Omnitech Electronics) and the data was analyzed using the Integrated Lab Animal Monitoring System (Omnitech Electronics).
N.I.H. Swiss-Webster mice were administered vehicle or test drug intraperitoneally (IP), 10 min later they were placed in the center of the lit compartment. The number of transitions between the lit and dark chambers, total activity in the lit chamber and the time spent in the lit chamber were measured during a 10 min test period.

maximal electroshock [5] = conditions: cited from earlier work
mice [6] = conditions: Rotorod; data from Swinyard & Woodhead 1982; cited from earlier work
(+)bicuculline = conditions: cited from earlier work
picrotoxin = conditions: cited from earlier work
[7] = system: metrazol induced convulsions; conditions: cited from earlier work
strychnine = strychnine administered i.v.; data from Worms et al. 1982; cited from earlier work

CC(O)C1CCC2C3CCC4CC(O)C(F)CC4(C)C3CCC12C (stereo not drawn) [2β-Fluoro-3α,20α-dihydroxy-5α-pregnane]
Vogel (% of control) (rats; g-CD, 20 ug): 264.9 % of control

CC(C)(O)[C@H]1CC[C@H]2[C@@H]3CC[C@H]4C[C@H](O)CC[C@]4(C)[C@H]3CC[C@]12C [3α,20-dihydroxy-20-methyl-5α-pregnane]
IC50 (GR complex): 176 nM
IMAX (GR complex): 40
Vogel (% of control) (rats; g-CD, 20 ug): 179.0 % of control

C[C@H](O)[C@H]1CC[C@H]2[C@@H]3CC[C@H]4C[C@H](O)CC[C@]4(C)[C@H]3CC[C@]12C [3α,20a(S)-dihydroxy-5α-pregnane, 3α,20α(S)-Dihydroxy-5α-pregnane]
IC50 (GR complex): 99 nM
IMAX (GR complex): 46
Vogel (% of control) (rats; b-CD, 10 ug): 193.0 % of control
% Protected ([1]; IP, micro soln.): 30%

CC(C)OC1CC2(C)C(CCC3C2CCC2(C)C(C(C)O)CCC32)CC1O (stereo not drawn) [3α,20α-Dihydroxy-2β-isopropoxy-5α-pregnane]
Vogel (% of control) (rats; g-CD, 10 ug): 169.0 % of control

C[C@H](O)[C@H]1CC[C@H]2[C@@H]3CC[C@@H]4C[C@H](O)CC[C@]4(C)[C@H]3CC[C@]12C [3α,20α-Dihydroxy-5β-pregnane]
Vogel (% of control) (rats; g-CD, 10 ug): 283.3 % of control

CCC[C@H](O)[C@H]1CC[C@H]2[C@@H]3CC[C@H]4C[C@H](O)CC[C@]4(C)[C@H]3CC[C@]12C [3α,20α-dihydroxy-21-ethyl-5α-pregnane]
IC50 (GR complex): 27 nM
IMAX (GR complex): 13
Vogel (% of control) (rats; g-CD, 20 ug): 225.8 % of control

CC[C@H](O)[C@H]1CC[C@H]2[C@@H]3CC[C@H]4C[C@H](O)CC[C@]4(C)[C@H]3CC[C@]12C [3α,20α-dihydroxy-21-methyl-5α-pregnane, 3α,20α-Dihydroxy-21-methyl-5α-pregnane]
IC50 (GR complex): 35 nM
IMAX (GR complex): 28
Vogel (% of control) (rats; g-CD, 10 ug): 157.9 % of control

C[C@@H](O)[C@H]1CC[C@H]2[C@@H]3CC[C@@H]4C[C@H](O)CC[C@]4(C)[C@H]3CC[C@]12C [3α,20β-Dihydroxy-5β-pregnane]
Vogel (% of control) (rats; g-CD, 20 ug): 267.3 % of control

C[C@]12CC[C@@H](O)C[C@@H]1CC[C@@H]1[C@@H]2CC[C@]2(C)[C@@H](C(=O)CO)CC[C@@H]12 [3α,21-dihydroxy-5α-pregnan-20-one, reference compound]
IC50 (GR complex): 76 nM
IMAX (GR complex): 100
% Protected ([1]; IP, 50% hpbcd, 10 minutes prior to metrazol (85 mg/kg)): 87.5%
ED50 ([1]; Mus musculus, metrazol s.c., steroid i.p., 20% hydroxypropyl-β-cyclodextrin in water): 8.1 mg/kg
ED50 (maximal electroshock [2]): 26.7 mg/kg

CC(=O)[C@H]1CC[C@H]2[C@@H]3CC[C@@H]4C[C@H](O)CC[C@]4(C)[C@H]3CC[C@]12C [3α-Hydroxy-5β-pregnan-20-one, reference compound]
entries into the open-arms (mice [3]; 5 mg/kg (p ≤ 0.05)): significant increases
entries into the open-arms (mice [3]; 10 mg/kg (p ≤ 0.01)): significant increases
time spent on the open-arms (mice [3]; 10 mg/kg (p ≤ 0.01)): significant increases
activity (mice [4]; 10 & 20 mg/kg, compared to control groups): significant (p < 0.01) increases
number of transitions between the dark box and the light box (mice [4]; at doses tested, versus control (Dunnett's t-test)): significantly increased

O=C1CN=C(c2ccccc2Cl)c2cc([N+](=O)[O-])ccc2N1 [Clonazepam]
ED50 MES (maximal electroshock [5]; data from Swinyard & Woodhead 1982): 93 mg/kg
ED50 RR (mice [6]): 0.184 mg/kg
ED50 BIC ((+)bicuculline; bicuculline, data from Swinyard & Woodhead 1982, NP = no protection): 0.0086 mg/kg
ED50 PICRO (picrotoxin; picrotoxin, data from Swinyard & Woodhead 1982, NP = no protection): 0.043 mg/kg
ED50 MTZ ([7]; metrazol, data from Swinyard & Woodhead 1982, NP = no protection): 0.009 mg/kg

CCC1(c2ccccc2)C(=O)NC(=O)NC1=O [Phenobarbital]
ED50 RR (mice [6]): 69 mg/kg

NC(=O)CCC/N=C(\c1ccc(Cl)cc1)c1cc(F)ccc1O [Progabide]
ED50 MES (maximal electroshock [5]; data from Worms et al. 1982): 75 mg/kg
ED50 STR (strychnine): 75 mg/kg
ED50 BIC ((+)bicuculline; bicuculline administered i.v., data from Worms et al. 1982): 30 mg/kg
ED50 PICRO (picrotoxin; picrotoxin administered i.v., data from Worms et al. 1982): 105 mg/kg
ED50 MTZ ([7]; metrazol administered i.v., data from Worms et al. 1982): 30 mg/kg

C#C[C@@]1(O)CC[C@@]2(C)[C@H](CC[C@@H]3[C@@H]2CC[C@]2(C)[C@@H](C(=O)COC(=O)CCC(=O)O)CC[C@@H]32)C1 [Sodium 3α,21-dihydroxy-3β-ethynyl-5β-pregnan-20-one 21-hemisuccinate]
IC50 (GR complex): 540 nM
IMAX (GR complex): 102
soluble in water: > 20 mg/mL
% Protected ([1]; mouse, in vivo, ip): 50%
% Control (mice [3]; PO, water, 10 mg/kg): 159%
